Here are results for 18 compounds from article PMC4912218, “Targeted metabolomics of Gammarus pulex following controlled exposures to selected pharmaceuticals in water” (The Science of the Total Environment, 2016).

One data set can be described thus: in vivo. The following applies: in vivo. The procedure: (§1) From these toxicity profiles the NOAEL and the LOAEL were determined. Exposure experiments were performed in Pyrex® beakers, each containing 200 mL of AFW at 15 °C and ten adult animals (> 5 mg wet weight, ww). Live/dead animals were counted after 24 h by gently prodding and observing movement of appendages. The pharmaceutical concentrations tested were in the range of 0.01 to 250 mg L^− 1. […] Concentrations where 100, 50 and 0% of the animals died were repeated in duplicate or triplicate.

On the set-up of data set [1]: method as in Drugbank. The following applies: ref Drugbank, cited from earlier work.
For the next data set, the system named is Thamnocephalus platyurus. The following applies: ref Kim et al., 2009; cited from earlier work.
The test system of a further data set is Gammarus pulex. Kind of data set: in vivo. The following applies: 24 h, AFW, 15 °C; * = LC50 is above solubility. The protocol:
as §1

In brackets after ≈: the same amount, converted by molar mass. Where a name gives a salt, the structure may show the parent alone. Read-outs that look alike come from different tables or passages of the source.

Regarding `CC(C)(Oc1ccc(Cl)cc1)C(=O)O` [Clofibric acid], the LC50 at 24 h in “in vivo” was more than 250 µg/mL. For the same compound, in data set [1], the Water solubility was 582.5 mg/L. Take `NC(=O)N1c2ccccc2C=Cc2ccccc21` [Carbamazepine]: the LC50 at 24 h in “in vivo” was more than 112 µg/mL. Further, the “24 h- LC50 T. platyurus” value in the data set on Thamnocephalus platyurus is more than 100 µg/mL.

On to `O=C(Nc1ccc(Cl)cc1)Nc1ccc(Cl)c(Cl)c1` [Triclocarban], for which, in the data set “in vivo”, the LC50 at 24 h is more than 10 µg/mL. The Water solubility in data set [1] (26 °C) is 10 (26 ºC) mg L^-1. On to `CC(C)(Oc1ccc(CCNC(=O)c2ccc(Cl)cc2)cc1)C(=O)O` [Bezafibrate], for which the LC50 at 24 h in the data set “in vivo” was more than 1 µg/mL. The Water solubility entry in data set [1] was “Insoluble”. Consider `COc1cc(Cc2cnc(N)nc2N)cc(OC)c1OC` [Trimethoprin], for which the “24 h- LC50 G. pulex (present study)” value in the data set with Gammarus pulex was more than 200 µg/mL. Also, the Water solubility in data set [1] was 400 mg/L.

As for `CC(=O)CC(c1ccccc1)c1c(O)c2ccccc2oc1=O` (stereo not shown) [Warfarin], the LC50 at 24 h in the data set “in vivo” was more than 17 µg/mL. `O=C(O)Cc1ccccc1Nc1c(Cl)cccc1Cl` [Diclofenac, Sodium diclofenac]: the Water solubility in data set [1] was 50000 mg/L.

For the compound `CNCCC=C1c2ccccc2CCc2ccccc21` [Nortriptyline], the LC50 at 24 h in “in vivo” is 18.9 µg/mL (≈ 71.6 µM). For the same compound, the Water solubility in data set [1] was 0.874 mg/L. `Cc1ccc(Cl)c(Nc2ccccc2C(=O)O)c1Cl` [Meclofenamic acid]: the LC50 at 24 h in “in vivo” was determined as 4.54 µg/mL (≈ 15.3 µM). Further, in data set [1], the Water solubility is 30 mg/L.

Regarding `COc1ccc2c(c1)c(CC(=O)O)c(C)n2C(=O)c1ccc(Cl)cc1` [Indomethacin], the LC50 at 24 h in “in vivo” (Gammarus pulex) is more than 0.93 µg/mL. Moreover, in the data set with Thamnocephalus platyurus, the “24 h- LC50 T. platyurus” value was 16.14 µg/mL.

With `CN(C)CCC=C1c2ccccc2CCc2ccccc21` [Amitriptyline], the LC50 at 24 h in “in vivo” was found to be 41.8 µg/mL (≈ 150 µM).

As to `CC(C(=O)O)c1ccc(-c2ccccc2)c(F)c1` (stereo not shown) [Flurbiprofen], the LC50 at 24 h in the data set “in vivo” (Gammarus pulex) was more than 8 µg/mL. In “in vivo”, `CN(C)CCCN1c2ccccc2CCc2ccccc21` [Imipramine] came in with an LC50 at 24 h of 3.85 µg/mL (≈ 13.7 µM). In data set [1], the Water solubility was 50000 mg/L. In turn, `CC(C)Cc1ccc(C(C)C(=O)O)cc1` (stereo not shown) [Ibuprofen] came in with an LC50 at 24 h in “in vivo” of 44 µg/mL (≈ 213 µM). In addition, the Water solubility in data set [1] was 100000 mg/L. Take `Cc1ccc(C)c(OCCCC(C)(C)C(=O)O)c1` [Gemfibrozil]: the LC50 at 24 h in “in vivo” was 9.84 µg/mL (≈ 39.3 µM). Further, in data set [1], the Water solubility was less than 1000 mg/L. On to `COCCc1ccc(OCC(O)CNC(C)C)cc1` (stereo not shown) [Metoprolol tartrate], for which, in “in vivo” (Gammarus pulex), the LC50 at 24 h was more than 150 µg/mL. On to `O=C(O)c1ccccc1O` [Salicylic acid], for which, in the data set “in vivo”, the LC50 at 24 h came to 29.3 µg/mL (≈ 212 µM). In addition, in data set [1], the Water solubility is 1800 mg/L. With `CNC(=C[N+](=O)[O-])NCCSCc1ccc(CN(C)C)o1` [Ranitidine], the LC50 at 24 h in the data set “in vivo” (Gammarus pulex) is more than 250 µg/mL. In addition, in data set [1], the Water solubility is 1800 mg/L.

A word on the LC50: it is the concentration that kills 50% of the test population. Higher therefore signals a less lethal substance.
